Test results published in patent US12440466B2, “Fatty acid derivatives for treating non-alcoholic steatohepatitis” (BASF AS, priority 2017, dated 2025).
Marks after values point to notes of the source that are not given here.

Columns and labels:
hepatic transcriptome = assay: Hepatic transcriptome (gene expression probes) in APOE*3.CETP transgenic mice; type: in vivo, mouse; settings: Compound A at a fraction of the dose of the omega-3 ethyl esters, data not shown
CETP = CETP expression in APOE*3.CETP mice; type: in vivo, mouse; settings: Compound A
ob/ob AMLN mice [1] = assay: Plasma triglyceride and total cholesterol levels in ob/ob AMLN mice; type: in vivo, mouse; settings: 8 weeks
Method: (§1) Obese diet-induced B6.V-Lepob/Jrj mice (ob/ob) are consistently fibrosis (liver) prone when cholesterol (2%), 40% fat (containing 18% trans-fatty acids) and 20% fructose are added to a high-caloric diet (i.e., AMLN high-fat diet). ob/ob mice on AMLN diet (termed ‘ob/ob AMLN mice’) develop steatohepatitis and fibrosis within a shorter timeframe ([…]) compared with wild-type C57BL/6 mice (AMLN mice) fed the same diet. ob/ob AMLN mice provide an obese diet-induced model of NASH that also allows the study of effects on glycemic control. Development of NASH in the ob/ob AMLN model is confirmed by biopsy.
(§2) In Biological Examples 10, 13-14, and 16-18, studies were performed in male ob/ob mice (5 weeks old) fed an AMLN high-fat diet for 18 weeks, then randomized into 6 groups (n=10 per group) to receive either Compound A (at 3 different daily doses, 45 mg/kg, 90 mg/kg or 135 mg/kg) via diet, 30 mg/kg bw per day obeticholic acid (OCA) via diet, or no treatment (vehicle) for a further 8 weeks. Assessment of NASH related parameters and fibrosis was made at study end by quantitative immune histochemistry (IHC) measurements.

APOE*3Leiden.CETP mice = assay: Hepatic free cholesterol, cholesterol ester and triglyceride content (HPTLC) in APOE*3Leiden.CETP mice; type: in vivo, mouse; settings: ApoE*3L-CETP mice, Western diet 0.25% cholesterol, 4 weeks; Compound A LD 0.3 mmol/kg bw/day; EPA/DHA ethyl esters HD 3 mmol/kg bw/day
Source text: The APOE*3Leiden.CETP double transgenic mouse expresses a variant of the human apolipoprotein E3 (APOE3), the APOE*3Leiden, in addition to the human apolipoprotein C1 (APOC1) and CETP. […] By increasing the cholesterol content of the diet in this model, all the characteristics of human NASH develop.
In Biological Example 25, the effects of Compound A alone and in combination with omega-3 fatty acid were studied. APOE*3Leiden.CETP mice were placed on a semi-synthetic high fat diet (24% fat w/w) with […] w/w. After a 4-week run-in period, low-responder mice were removed from the study and the remaining mice were sub-divided into groups of 8 mice each, matched for plasma cholesterol, triglycerides, blood glucose, body weight and age (t=0) and treatment was started. To facilitate mixing of the compounds, sunflower oil was added to a total oil volume of 10 mL/kg diet. Compound A was administered at 0.3 mmol/kg bw/day whilst the omega-3 fatty acid ethyl-esters (85% w/w EPA/DHA ethyl-esters) were administered at 3.0 mmol/kg bw/day. Both Compound A and the omega-3 ethyl esters were administered orally as admix to the high-fat diet. After 4 weeks of treatment, mice were sacrificed by C02 asphyxiation, the liver was collected and the hepatic content of free cholesterol, cholesterol ester and triglyceride were measured after extraction and separation by high performance thin layer chromatography.

STAM (model) mice = assay: NAFLD activity score (NAS) in streptozotocin/high-fat diet NASH model (STAM model); type: in vivo, mouse; settings: 6 weeks treatment, Compound A 37 mg/kg/day oral gavage, telmisartan positive control
Source text: In Biological Example 8, pathogen-free 15-day-pregnant C57BL/6 mice were obtained from Charles River Laboratories in Japan Inc. (Kanagawa, Japan). NASH was established in male mice by a single subcutaneous injection of streptozotocin (STZ) (Sigma, USA) after birth and feeding with a high fat diet (HFD; CLEA) Japan, Japan) ad libitum after 4 weeks of age (day 28±2). Mice were randomised into 3 groups of 8 mice at 6 weeks of age the day before the start of treatment: vehicle (saline), Compound A and telmisartan (positive control). Treatment with Compound A at a dose of 37 mg/kg bw per day via oral gavage in conjunction with a high-fat diet was given for 6 weeks before sacrifice. NAFLD activity score (NAS) was calculated according to standardised criteria and fibrosis area was assessed via Sirius Red staining.

Col1a1 mRNA = assay: Hepatic Col1a1 mRNA expression by qPCR, CDAA/high-fat diet mouse model; type: in vivo; settings: CDAA/high-fat fed mice
Source text: (§3) Mice were fed either choline-sufficient (CS) or choline deficient high-fat diets (31% total calories; “CDAA/high-fat”). The NASH inducing diet was instigated 6 weeks prior to the commencement of treatment in order to design the study as a treatment/reversal set-up rather than prophylaxis.
After 6 weeks of either the CS- or CDAA diet, mice were orally administered Compound A or comparison Compound N, both at 2 doses, 0.15 mmol/kg bw/day (low-dose, LD) and 0.3 mmol/kg bw per day (high-dose, HD). The test substances were administered orally as admix to the high-fat diet. Hepatic fibrosis was assessed by both measurement of hydroxyproline (HYP) content and Sirius Red (SR) morphometry. Fibrosis, inflammation and metabolism related transcripts levels were measured by quantitative real-time polymerase chain reaction (qPCR).
(§4) Studies were performed in male C56BL/6J mice (9 weeks old). Mice were divided into 6 experimental groups (n=9 per group) containing either CS or CDAA/high-fat diets, as described above. The NASH inducing CDAA/high fat diet was instigated 6 weeks prior to the commencement of treatment in order to assess treatment/reversal rather than prophylaxis. […] Compound A was administered orally as admix to the high-fat diet whilst GLP-1 agonist was delivered via intraperitoneal injection (i.p.). Fibrosis, inflammation and metabolism related transcripts levels were measured by quantitative real-time polymerase chain reaction (qPCR) in isolated liver tissue.

MMP-13 mRNA = assay: Hepatic MMP-13 mRNA expression by qPCR, CDAA/high-fat diet mouse model; type: in vivo; settings: CDAA/high-fat fed mice; Compound A 0.3 mmol/kg bw/day oral; GLP-1a 0.4 mg/kg once weekly i.p.
Method: as §3, §4

ob/ob AMLN mice [2] = assay: Plasma ALT and AST (hepatocellular damage) in ob/ob AMLN mice; type: in vivo, mouse; settings: 8 weeks
Method: as §1, §2
To assess the effects of Compound A and pioglitazone on hepatocellular injury or damage in ob/ob AMLN mice, plasma alanine aminotransferase (ALT) and aspartate transaminase (AST) were measured after 8 weeks of administration.

## CC/C=C\C/C=C\C/C=C\C/C=C\C/C=C\CCCCOC(CC)C(=O)O (stereo not drawn) [Compound A, 2-((5Z,8Z,11Z,14Z,17Z)-icosa-5,8,11,14,17-pentaenyloxy)butanoic acid]
Hepatic transcriptome
  gene expression probes significantly up- or down-regulated in the liver: > 1094
CETP
  CETP expression: significantly reduce CETP expression
ob/ob AMLN mice [1]; Compound A 90 mg/kg
  plasma total cholesterol levels: comparable reductions
  plasma triglyceride levels: comparable reductions
ob/ob AMLN mice [1]; Compound A 135 mg/kg
  plasma total cholesterol levels: comparable reductions
  plasma triglyceride levels: comparable reductions
APOE*3Leiden.CETP mice
  Hepatic CE: 17*
  Hepatic FC: 9.5
  Hepatic TG: 58.8
STAM (model) mice
  Hepatocellular ballooning: 1
  Lobular inflammation: 0.88
  NAS score (mean ± SD): 2.3 ± 1.5
  Steatosis: 0.12
Col1a1 mRNA; Compound A 0.3 mmol/kg bw/day oral, GLP-1a 0.4 mg/kg once weekly i.p., alone or combined
  Col1a1 (relative mRNA expression): 6.2***
Col1a1 mRNA; HD 0.3 mmol/kg bw per day
  Col1a1 (relative mRNA expression): 6***
Col1a1 mRNA; LD 0.15 mmol/kg bw/day
  Col1a1 (relative mRNA expression): 10***
MMP-13 mRNA
  MMP-13 (relative mRNA expression): 1.6***
ob/ob AMLN mice [2]; Compound A 90 mg/kg, p<0.01
  plasma ALT: marked and significant reduction
ob/ob AMLN mice [2]; Compound A 90 mg/kg, p<0.05
  plasma AST: significantly reduced
ob/ob AMLN mice [2]; Compound A 135 mg/kg, p<0.001
  plasma ALT: marked and significant reduction
ob/ob AMLN mice [2]; Compound A 135 mg/kg, p<0.01
  plasma AST: significantly reduced
